The values that follow come from PMC10800876, “Evaluation of proline-rich antimicrobial peptides as potential lead structures for novel antimycotics against Cryptococcus neoformans” (Frontiers in Microbiology, 2024).

Values after ≈ are worked out from the molar mass of the structure shown. Like-named read-outs stand apart in the source and are kept apart here. Non-standard residues stand in square brackets, D forms with d. Residues, ends and D or L forms follow the SMILES beside them. Ac6c = NC1(C(=O)O)CCCCC1

The test system of data set [1] is C. neoformans strains 1841, H99, and KN99α. Briefly: Broth microdilution assay (MIC). Format: cell-based, Cryptococcus neoformans.
The test system of data set [2] is C. neoformans 1841. Briefly: Antifungal activity assay (CFU on SAB agar). In kind it is cell-based, Cryptococcus neoformans. As to conditions: treatment 3 h, 30 °C, mean ± SD, n = 4; for cell count C. neoformans 1841, 24 h: CFU counted after 24 h; for cell count C. neoformans 1841, 48 h: CFU counted after 48 h.
For another data set, the system named is C. neoformans H99. Briefly: Antifungal activity assay (CFU on SAB agar). In kind it is cell-based, Cryptococcus neoformans. Conditions: treatment 3 h, 30 °C, mean ± SD, n = 4; for cell count C. neoformans H99, 24 h: CFU counted after 24 h; for cell count C. neoformans H99, 48 h: CFU counted after 48 h.
For another data set, the system named is C. neoformans KN99α. Briefly: Antifungal activity assay (CFU on SAB agar). As to conditions: treatment 3 h, 30 °C, mean ± SD, n = 4; for cell count C. neoformans KN99α, 24 h: CFU counted after 24 h; for cell count C. neoformans KN99α, 48 h: CFU counted after 48 h. Format: cell-based, Cryptococcus neoformans.
Data set [3] has as its system HepG2 and HEK293 cell lines. Briefly: Cytotoxicity (MTT), for both cell lines. Format: cell-based, human.
Protocol: Human embryonic kidney (HEK293) and human hepatoma (HepG2) cells were cultured in Dulbecco’s modified Eagle’s/Ham’s F-12 medium (DMEM/F-12) containing 10% (v/v) fetal bovine serum and 1% (v/v) penicillin/streptomycin. Cells (20,000 in 200 μL per well) were seeded into a 96-well plate (polystyrene F-bottom, Greiner Bio-One GmbH) and incubated for 24 h (37°C, 5% CO2). Cells were washed with PBS (100 μL) and peptide solutions (0.6 g/L in DMEM/F-12) were added. The positive control was a dilution series from 12 to 1.5% (v/v) DMSO and the negative control was 12% (v/v) PBS. After incubation (37°C, 24 h, 5% CO2), the supernatant was discarded, fresh medium (90 μL/well) and MTT (10 μL/well, 5 g/L in PBS) were added, and the plate was incubated for 4 h (37°C, 5% CO2). A solution (100 μL) of sodium dodecyl sulfate (10% (v/v)) in hydrochloric acid (10 mmol/L) was added and the plate was incubated again for 24 h (37°C, 5% CO2). Absorbance was recorded at 570 nm relative to the reference at 650 nm ([…] ™ microplate reader). All samples were corrected for the background absorbance of the medium. Relative cell viability was calculated as the ratio of absorbances recorded for treated and untreated cells ([Kolano et al., 2021]; [Brakel et al., 2022a],[b]).
In data set [4] the test system is C. neoformans 1841 (serotype D). Briefly: microbe, parasite or virus in culture. Conditions: Cryptococcus neoformans.
Data set [5] concerns C. neoformans H99 (serotype A). Briefly: microbe, parasite or virus in culture. Conditions: Cryptococcus neoformans.
For data set [6], the system named is C. neoformans KN99α (serotype A, mating type MATα). Briefly: microbe, parasite or virus in culture. Conditions: Cryptococcus neoformans.
Data set [7] relates to C. neoformans 1841. Briefly: Time-kill assay. Format: cell-based, Cryptococcus neoformans. As to conditions: 2.5 μmol/L, 30°C, triplicates. Here is the method: The kinetic effects of the antifungal activity were determined by diluting overnight cultures to 5 × 10^4 CFU/mL with 50% SAB in phosphate buffer. Aqueous peptide solutions (20 μL) were added to the cell suspension (80 μL) to give a final peptide concentration of 2.5 μmol/L. Samples were incubated at 30°C on an orbital shaker (750 rpm, Titramax 1,000, Heidolph Instruments GmbH & Co. KG) for 24 h. Before incubation (0 min) and after 45 min, 90 min, 3 h, 6 h, and 24 h incubation, aliquots (10 μL) of samples were taken and diluted with phosphate buffer (10 mmol/L, pH 7.5) to observe countable cell colonies. Aliquots (100 μL) of the diluted cell suspensions were plated on SAB agar plates. Plates were incubated at 30°C and colonies were counted after 24 h.

Data set [8] relates to C. neoformans strains 1841, H99, and KN99α. Briefly: Antifungal activity assay (CFU). Format: cell-based, Cryptococcus neoformans. As to conditions: peptide concentrations ≥2.5 μmol/L, no colonies visible even after 48 h.
Data set [9] has as its system C. neoformans 1841 (serotype D).
Data set [10] has as its system C. neoformans H99 (serotype A).
In data set [11] the test system is C. neoformans KN99α (serotype A, mating type MATα).
Another data set has as its system C. neoformans. As to conditions: cited from earlier work. The source says: Moreover, these drugs have tremendous side effects due to their high toxicity, particularly kidney damage. In general, the dev ...
The next data set has as its system in vitro translation. Conditions: ref Seefeldt et al., 2016; cited from earlier work. On the procedure: The putative intracellular mode of action is a very significant finding, supported by CLSM images showing fluorescence in the cytoplasmic region after incubation of C. neoformans with Cf-labeled PrAMPs (Figure 4; Supplementary Figure S3). At this point, we can only speculate about potential targets, such as the ribosomes at the endoplasmic reticulum, which is the primary target of PrAMPs in bacteria, i.e., the 70S ribosome ([Krizsan et al., 2014], [2015a],[b]; [Seefeldt et al., 2015]; [Graf et al., 2017]). […] However, ...

As to `C[C@@H]1[C@H](O)[C@@H](C)/C=C/C=C/C=C/C=C/C=C/C=C/C=C/[C@H](O[C@@H]2O[C@H](C)[C@@H](O)[C@H](N)[C@@H]2O)C[C@@H]2O[C@](O)(C[C@@H](O)C[C@@H](O)[C@H](O)CC[C@@H](O)C[C@@H](O)CC(=O)O[C@H]1C)C[C@H](O)[C@H]2C(=O)O` [Amphotericin B, reference compound], the “MIC” value was under 0.2 µg/mL in [1]; under 0.22 µM in [1] (Cryptococcus neoformans, read-out: MIC); 0.06 to 0.23 µmol/L in data set [4] (24 h, pH 7.5, read-out: MIC (μmol/L) 1841 24 h); 0.06 to 0.12 mg/L in data set [4] (24 h, read-out: MIC (mg/L) 1841 24 h); 0.13 µmol/L in data set [4] (48 h, pH 7.5, read-out: MIC (μmol/L) 1841 48 h); 0.12 mg/L in data set [4] (48 h, read-out: MIC (mg/L) 1841 48 h). Also, the MIC in data set [5] (24 h, read-out: MIC (mg/L) H99 24 h) is under 0.02 mg/L; in data set [5] (24 h, read-out: MIC (μmol/L) H99 24 h), under 0.02 µmol/L; in data set [5] (48 h, read-out: MIC (mg/L) H99 48 h), 0.04 to 0.08 mg/L; in [5] (48 h, read-out: MIC (μmol/L) H99 48 h), 0.04 to 0.09 µmol/L; in data set [6] (24 h, read-out: MIC (mg/L) KN99α 24 h) it was 0.08 mg/L; in [6] (24 h, read-out: MIC (μmol/L) KN99α 24 h), 0.09 µmol/L. Also, the MIC in data set [6] (48 h, read-out: MIC (mg/L) KN99α 48 h) was determined as 0.16 mg/L; in data set [6] (48 h, read-out: MIC (μmol/L) KN99α 48 h), 0.17 µmol/L. In addition, the entries for the “cell count C. neoformans 1841, 24 h” value in the data set with C. neoformans 1841 [2] (0.25 µmol/L), in the data set with C. neoformans 1841 [2] (2.5 µmol/L) and in the data set with C. neoformans 1841 [2] (25 µmol/L) were 1.4 ± 0.3 x 10^4 CFU/mL, 0.0 ± 0.0 x 10^4 CFU/mL and 0.0 ± 0.0 x 10^4 CFU/mL, respectively. The “cell count C. neoformans 1841, 48 h” value is reported as 1.4 ± 0.3 x 10^4 CFU/mL in the data set on C. neoformans 1841 [2] (0.25 µmol/L), 0.0 ± 0.0 x 10^4 CFU/mL in the data set with C. neoformans 1841 [2] (2.5 µmol/L) and 0.0 ± 0.0 x 10^4 CFU/mL with C. neoformans 1841 [2] (25 µmol/L). Further, the “cell count C. neoformans H99, 24 h” value with C. neoformans H99 (0.25 µmol/L) is 0.9 ± 0.7 x 10^4 CFU/mL; in the data set with C. neoformans H99 (2.5 µmol/L) it was 0.0 ± 0.0 x 10^4 CFU/mL; with C. neoformans H99 (25 µmol/L) it was 0.0 ± 0.0 x 10^4 CFU/mL. Also, the “cell count C. neoformans H99, 48 h” value is reported as 1.1 ± 0.7 x 10^4 CFU/mL in the data set on C. neoformans H99 (0.25 µmol/L), 0.0 ± 0.0 x 10^4 CFU/mL in the data set with C. neoformans H99 (2.5 µmol/L) and 0.0 ± 0.0 x 10^4 CFU/mL in the data set with C. neoformans H99 (25 µmol/L). Besides, the “cell count C. neoformans KN99α, 24 h” value was 2.4 ± 1.5 x 10^4 CFU/mL in the data set with C. neoformans KN99α (0.25 µmol/L), 0.1 ± 0.1 x 10^4 CFU/mL with C. neoformans KN99α (2.5 µmol/L) and 0.0 ± 0.0 x 10^4 CFU/mL in the data set with C. neoformans KN99α (25 µmol/L). In addition, the “cell count C. neoformans KN99α, 48 h” value is recorded as 2.5 ± 1.7 x 10^4 CFU/mL in the data set on C. neoformans KN99α (0.25 µmol/L), 0.1 ± 0.1 x 10^4 CFU/mL with C. neoformans KN99α (2.5 µmol/L) and 0.0 ± 0.0 x 10^4 CFU/mL in the data set on C. neoformans KN99α (25 µmol/L). In addition, the “cytotoxicity” value in data set [3] (125 mg/L, 24 h) is given as “strong cytotoxicity”.
Take `CC(C)C[C@H](NC(=O)[C@H](Cc1ccc(O)cc1)NC(=O)[C@@H]1CCCN1C(=O)[C@H](CCCNC(=N)N)NC(=O)[C@@H]1CCCN1C(=O)[C@H](CCCCN)NC(=O)[C@H](CCCCN)NC(=O)[C@@H]1CCCN1C(=O)[C@H](CCCNC(=N)N)NC(=O)C1(N)CCCCC1)C(=O)N1CCC[C@H]1C(=O)N[C@@H](CCCNC(=N)N)C(=O)N1CCC[C@H]1C(=O)N[C@@H](CCCNC(=N)N)C(=O)N1CCC[C@H]1C(=O)N1CCC[C@H]1C(=O)N[C@@H](CCCNC(=N)N)C(=O)N1CCC[C@H]1C(=O)N[C@H](C(=O)N[C@@H](CCCNC(=N)N)C(N)=O)C(C)C` [Chex1Arg20 D4K] (H-[Ac6c]RPKKPRPYLPRPRPPRPVR-NH2; N-terminus assumed): in data set [1] (strains 1841, H99, and KN99α, 24 h), the “MIC” value amounted to 1.6 µM. The entries for the “cell count C. neoformans 1841, 24 h” value with C. neoformans 1841 [2] (0.25 µmol/L), in the data set on C. neoformans 1841 [2] (2.5 µmol/L) and in the data set on C. neoformans 1841 [2] (25 µmol/L) were 0.4 ± 0.0 x 10^4 CFU/mL, 0.0 ± 0.0 x 10^4 CFU/mL and 0.0 ± 0.0 x 10^4 CFU/mL, respectively. Besides, the “cell count C. neoformans 1841, 48 h” value in the data set on C. neoformans 1841 [2] (0.25 µmol/L) is 2.2 ± 0.3 x 10^4 CFU/mL; in the data set with C. neoformans 1841 [2] (2.5 µmol/L), 0.0 ± 0.0 x 10^4 CFU/mL; with C. neoformans 1841 [2] (25 µmol/L), 0.0 ± 0.0 x 10^4 CFU/mL. The results for the “cell count C. neoformans H99, 24 h” value in the data set on C. neoformans H99 (0.25 µmol/L), in the data set on C. neoformans H99 (2.5 µmol/L) and with C. neoformans H99 (25 µmol/L) were 2.7 ± 0.4 x 10^4 CFU/mL, 0.0 ± 0.0 x 10^4 CFU/mL and 0.0 ± 0.0 x 10^4 CFU/mL, respectively. For the same compound, the entries for the “cell count C. neoformans H99, 48 h” value in the data set with C. neoformans H99 (0.25 µmol/L), with C. neoformans H99 (2.5 µmol/L) and in the data set with C. neoformans H99 (25 µmol/L) were 2.9 ± 0.4 x 10^4 CFU/mL, 0.1 ± 0.0 x 10^4 CFU/mL and 0.0 ± 0.0 x 10^4 CFU/mL, respectively. The entries for the “cell count C. neoformans KN99α, 24 h” value with C. neoformans KN99α (0.25 µmol/L), in the data set on C. neoformans KN99α (2.5 µmol/L) and in the data set with C. neoformans KN99α (25 µmol/L) were 2.0 ± 1.2 x 10^4 CFU/mL, 0.1 ± 0.1 x 10^4 CFU/mL and 0.8 ± 1.3 x 10^4 CFU/mL, respectively. The “cell count C. neoformans KN99α, 48 h” value with C. neoformans KN99α (0.25 µmol/L) was 2.2 ± 1.1 x 10^4 CFU/mL; in the data set with C. neoformans KN99α (2.5 µmol/L), 0.1 ± 0.1 x 10^4 CFU/mL; in the data set with C. neoformans KN99α (25 µmol/L), 0.8 ± 1.3 x 10^4 CFU/mL. The “incubation time after which no viable cells were detected” value in the data set with C. neoformans 1841 [7] worked out at 45 min. Besides, in data set [8], the “suppression of fungi, colonies after 48 h” value is reported as “completely suppressed the fungi”. The “peptide concentration used in cytotoxicity test relative to MIC (safety margin)” value in data set [3] is 150 fold. Besides, the “MIC (μmol/L) 1841 24 h” value in data set [9] (1841 (serotype D, 24 h, pH 7.5)) came out at 1.6 µmol/L (≈ 3.98 µg/mL). Besides, the “MIC (μmol/L) 1841 48 h” value in data set [9] (1841 (serotype D, 48 h, pH 7.5)) stood at 1.6 µmol/L (≈ 3.98 µg/mL). Also, in data set [10] (H99 (serotype A, 24 h)), the “MIC (μmol/L) H99 24 h” value was 1.6 µmol/L (≈ 3.98 µg/mL). Also, the “MIC (μmol/L) H99 48 h” value in [10] (H99 (serotype A, 48 h)) is 1.6 µmol/L (≈ 3.98 µg/mL). Also, the “MIC (μmol/L) KN99α 24 h” value in data set [11] (KN99α (serotype A, mating type MATα, 24 h)) was 1.6 µmol/L (≈ 3.98 µg/mL). Besides, the “MIC (μmol/L) KN99α 48 h” value in [11] (KN99α (serotype A, mating type MATα, 48 h)) was found to be 1.6 µmol/L (≈ 3.98 µg/mL).
In the case of `N=C(N)NCCCCC(=O)Nc1cc(C(F)(F)F)cc(NC(=O)c2cc(C(=O)Nc3cc(C(F)(F)F)cc(NC(=O)CCCCNC(=N)N)c3O[C@@H]3CCNC3)ncn2)c1O[C@@H]1CCNC1` [brilacidin], the “MIC against C. neoformans” value with C. neoformans (ref Dos Reis et al., 2023) was 2.5 µM (≈ 2.34 µg/mL).
Regarding “Bac7 (1-35): mammalian PrAMP fragment, literature (RRIRPRPPRLPRPRPRPLPFPRPGPRPIPRPLPFP; Bactenecin 7; UniProt P19661 131-165, looked up, fragment)”, in the data set with C. neoformans (ref Benincasa et al., 2004, Conti et al., 2013), the “MIC against C. neoformans” value is at least 4 µM. For the same compound, the “IC50 in eukaryotic in vitro translation system relative to the E. coli system” value with in vitro translation was 2.5 fold.
